For series [1], the system named is 3T3 Fibroblast Cell Membrane. To be noted: 100 µg/ml, 24-hour incubation.
Procedure: MCF-7 and MDA-MB 231 and 3T3 fibroblast cells were plated into sterile round slides with a diameter of 12 mm in the wells in 24-well plate such that each well contained 50,000 cells. The following day, the medium was replaced with a medium containing cryptonin at a concentration of 100 µg/ml. After 24-hour incubation, the cells were washed 2 times with 0.1 M sodium cacodylate buffer (pH 7.2) and fixed with 2.5% glutaraldehyde prepared in 0.1 M sodium cacodylate buffer for 2 hours. After the first fixation, the cells were washed again with 0.1 M sodium cacodylate buffer and fixed with 1% osmium tetroxide prepared in 0.2 M sodium cacodylate buffer for 30 minutes for the second time. After the cells were washed with 0.2 M sodium cacodylate buffer, they were taken in an increasing series of ethyl alcohol. Dehydration was performed by incubation 3 times with 30% alcohol for 5 minutes, 3 times with 50% alcohol for 5 minutes, 2 times with 70% alcohol for 10 minutes, 2 times with 85% alcohol for 15 minutes, 2 times with 95% alcohol for 15 minutes and 3 times with 100% alcohol for 10 minutes. After the slides were air-dried, they were coated with golden by BioRad SC 502 coating device. The cells were examined with Jeol Neoscope JCM-500 scanning electron microscope and their photographs were taken (Vitale et al., 1998; Hilchie et al., 2011).
Series [2] deals with MCF-7 cells. To be noted: 24 hours, positive control = 100%. The procedure:
(§1) The lactate dehydrogenase (LDH) release assay is based on the measurement of a cytoplasmic enzyme, lactate dehydrogenase, activity released from damaged cells (Lobner, 2000) and is used for the assessment of cellular cytotoxicity. The cytotoxic effect of cryptonin on MCF-7 and MDA-MB 231 breast cancer cell lines was determined by measuring the activity of lactate dehydrogenase (LDH) enzyme released from damaged cells and a Cytotoxicity Detection Kit, LDH (Roche Molecular Diagnostics, Germany) was used for this purpose.
(§2) In LDH test, a negative control, a control group for spontaneous LDH release from the cells, and a positive control group for maximum LDH release were studied, as well as experimental groups to which peptide was administered. […] For this purpose, doses of 10, 25, 50 and 100 µg/ml were administered for MCF-7 cells and doses of 7.5, 10, 25 and 50 µg/ml were administered for MDA-MB 231 cells, for 24 hours. Cells were grown in the flasks of 75 cm, then removed with trypsin-EDTA and centrifuged. Cells were suspended in medium at 5000 cells per 100 µl, and 100 µl of cell suspension was transferred to 96-well plates. All control groups and experimental groups were studied with 3 wells and the experiment was repeated 3 times. After a 24-hour incubation, the media of the control groups were refreshed. The medium of the experimental groups was replaced with a medium containing different concentrations of peptide. The lactate dehydrogenase enzyme activity released from the cells after the cells were incubated with cryptonin for 24 hours was determined following the manufacturer's instructions. 5 µl of lysis solution (2% Triton-X-100) was added to the wells of the positive control group and the plate was incubated for 15 minutes at 37°C. To measure LDH activity, 100 µl of the freshly prepared reaction mixture containing catalyst (Diaphorase/NAD^+ mixture) and dye solution (iodotetrazolium chloride (INT) and sodium lactate) was added to each well. After 30 minutes of incubation in the dark at room temperature, the reaction was stopped by the addition of 50 µL of stop solution (1N HCl) to each well. The plates were shaken for 10 seconds on an orbital shaker and the spectrophotometric absorbance was measured at a test wavelength of 490 nm and a reference wavelength of 690 nm. The results were determined as % cytotoxicity. The mean absorbance values of the negative control were subtracted from the control and experimental groups, the positive control group was considered to be 100% cytotoxic and the cytotoxicities were calculated by comparing the control and experimental groups with positive control group using the following formula: [formula]

The subject of series [3] is MDA-MB 231 cells. To be noted: 24 hours, positive control = 100%. The procedure: as §1, §2
The subject of series [4] is MCF-7 cells. The series can be described thus: Type of cell death by acridine orange/ethidium bromide double staining. It counts as cell-based. The settings on record: 24 hours, mean +/- Standard Error. The procedure:
(§3) Cells were stained with acridine orange/ethidium bromide double staining method to morphologically analyze whether cryptonin-induced cell death occurs by a necrotic pathway or by an apoptotic pathway. For this purpose, breast cancer cells were plated in a 24-well plate, with 10,000 cells being present in each well and incubated for 24 hours at the above-mentioned different concentrations of antimicrobial peptides. After incubation, a mixture of acridine orange (Sigma) (100 µg/ml) /ethidium bromide stain (Sigma) (100 µg/ml) prepared in PBS was applied to the cells and the cells were visualized using a FITC/CY3 filter on a fluorescent microscope (Nikon DS5MCU2). 200 cells from each group were counted according to the staining pattern. Cells were grouped as viable, apoptotic and necrotic according to the staining pattern of their nuclei (Spector et al., 1998). Viable cells were distinguished as having green chromatin nuclei in an organized structure, apoptotic cells were distinguished as having green or orange fragmented nuclei, and necrotic cells were distinguished as normal colored but having orange nuclei like normal cells (Ribble et al., 2005).

The subject of series [5] is MDA-MB 231 cells. The description is as above. It counts as cell-based. The settings on record: 24 hours, mean +/- Standard Error. The method, then:
as §3

In series [6] the test system is 3T3 fibroblast cells.
Procedure: Yellow MTT is reduced to purple formazan crystals by the activity of mitochondrial dehydrogenases in viable cells. The intensity of the resulting purple color is directly proportional to the number of viable cells. MTT test was performed in 96-well plates. To this end, the cells grown in the flasks were removed by trypsin-EDTA, then collected by centrifugation and the cell pellet was suspended in the medium such that 5000 cells would be present per 100 µl. 5000 cells were plated in each well of the plate. In the following day, the medium in the wells was removed, fresh medium was added to the control group, and a medium containing anti-microbial peptide was added to the experimental groups at 8 different concentrations. This medium contained 10% serum.
Cells were exposed to different concentrations of antimicrobial peptide for 24 hours. At the end of this period, 30 µl of a solution of 3-(4,5-dimethylthiazol-2-yl)-2,5-diphenyltetrazolium bromide (MTT) was added to each well in the plate. […] The optical density was measured at a test wavelength of 570 nm and a reference wavelength of 630 nm. […] The mean absorbance values obtained from the control group were accepted as 100% cell viability and the values obtained from the wells treated with antimicrobial peptide were assessed versus control group.
The subject of series [7] is erythrocytes. The settings on record: dose of 25-200 µg/ml; Park et al. (2007); cited from earlier work.

Where two headings read alike, the source gives them in different places. Ends that are not written are not given here.

As to GLLNGLALRLGKRALKKIIKRLCR [cryptonin], the “effect on cell membrane (scanning electron microscope)” value in series [1] was “disrupted the cell membrane integrity by forming pores, slits and blebs”. Also, the “LDH release (% cytotoxicity)” value was 36.03±2.1% in series [2] (25 µg/ml); 84.1±1.7% in series [2] (50 ug/ml); 84.66±1.6% in series [2] (100 µg/ml); 7.09±0.7% in series [3] (7.5 µg/ml); 8.46±0.9% in series [3] (10 µg/ml); 24.24±2.1% in series [3] (25 µg/ml). The “LDH release (% cytotoxicity)” value in series [3] (50 µg/ml) stood at 45.90±1%. The Viable cell % in series [4] (10 µg/ml) is 98.89±5%; in series [4] (25 µg/ml) it was 85.3±4.8%; in series [4] (50 µg/ml), 1.07±1.1%; in series [4] (100 µg/ml), 0.06±0.2%; in series [4] (200 µg/ml), 2.14±1.8%; in series [5] (10 µg/ml) it was 95.88±1.6%. The Viable cell % was determined as 95.53±2.9% in series [5] (25 µg/ml), 45.13±4.1% in series [5] (50 µg/ml), 0.04±0.1% in series [5] (100 µg/ml) and 0±0% in series [5] (200 µg/ml). The fibroblast cell viability entry in series [6] (dose range 25-200 µg/ml) is given as “significantly reduced”. For the same sequence, the “number of viable cells” value in series [6] (less at 10 µg/ml, more at 25, 50, 100 and 200 µg/ml, 24 hours, cells representing normal cells) was “reduced the number of viable cells”. Further, the hemolysis of erythrocytes in series [7] is 5%.

The values above are taken from patent EP3400955B1, “USE OF CRYPTONIN FOR TREATMENT OF CANCER” (Istanbul Universitesi Rektorlugu, priority 2016, dated 2025).
